# Measurements taken from patent US20240279283A1, “CYCLIC PEPTIDE ANTIBIOTICS” (priority 2021, published 2024).
# Bridge positions count the residues as written; N and C are the ends. Square brackets hold non-standard residues; d marks the D form. Peptide text beside a SMILES is read from it. 1Nal = N[C@@H](Cc1cccc2ccccc12)C(=O)O; His(π-Me) = Cn1cncc1C[C@H](N)C(=O)O; NMeY = CN[C@@H](Cc1ccc(O)cc1)C(=O)O; Nle = CCCC[C@H](N)C(=O)O; Abu = CC[C@H](N)C(=O)O
# Assays:
# Type in all cases: cell-based
# Settings in all cases: LB broth, 5×10^5 CFU/ml, 37° C., 18 hours, scored by eye
# E. coli 25922 = experiment: Minimum Inhibitory Concentration (MIC) determination, E. coli 25922; design: unit not given here
# Method in brief: (§1)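 Peptides, diluted two-fold in LB broth from 10 mM DMSO stocks, were inoculated with 5×10^5 CFU/ml of each strain. Incubation was 18 h at 37 °C without shaking. MIC is the lowest concentration preventing visible growth, scored by eye.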
# E. cloacae ATCC222 = experiment: Minimum Inhibitory Concentration (MIC) determination, E. cloacae ATCC222; design: unit not given here
# Procedure: (§2) MICs were determined by performing two-fold serial dilutions of peptides in LB broth to a final volume of 0.1 ml in round-bottom 96-well assay plates (Corning Life Sciences No 3788). Peptides were initially resuspended in 100% DMSO to 10 mM and subsequently diluted in LB medium to the appropriate concentration. Each well was inoculated with 5×10^5 CFU/ml of the screening stain and incubated at 37° C. without agitation for 18 hours. Plates were scored by eye, and the lowest compound concentration preventing visible growth was determined to be the MIC.
# K. pneumoniae ATCC43816 = experiment: Minimum Inhibitory Concentration (MIC) determination, K. pneumoniae ATCC43816; design: unit not given here
# Procedure: as §2
# E. coli BW25113 = experiment: Minimum Inhibitory Concentration (MIC) determination, E. coli BW25113; design: unit not given here
# Method in brief: as §1
# E. coli 25922 IMP = experiment: Minimum Inhibitory Concentration (MIC) determination, E. coli 25922 IMP
# Method in brief: as §1
SMILES,MIC E. coli 25922 WUXI::MIC (E. coli 25922),MIC E. cloacae ATCC222 WUXI::MIC (E. cloacae ATCC222),MIC K. pneumoniae ATCC43816 Wuxi::MIC (K. pneumoniae ATCC43816),MIC E. coli BW25113 WUXI::MIC (E. coli BW25113),MIC E. coli 25922 IMP WUXI::MIC (E. coli 25922 IMP)
CC[C@@H]1NC(=O)[C@H](Cc2ccccc2)NC(=O)CSC[C@@H](C(=O)NCC(N)=O)NC(=O)[C@H](Cc2cncn2C)NC(=O)[C@H](CCCNC(=N)N)NC(=O)[C@H](Cc2c[nH]cn2)NC(=O)[C@H](Cc2ccc(O)cc2)N(C)C(=O)[C@H](CCCNC(=N)N)NC(=O)[C@H](CO)NC(=O)[C@@H](C)NC(=O)[C@H](Cc2c[nH]cn2)NC(=O)[C@H](Cc2cccc3ccccc23)NC1=O [Compound 26] ({CH2CO}-F[Abu][1Nal]H[dA]SR[NMeY]HR[His(π-Me)]CG-NH2; thioether N-12),3.1,0.78,25,6.3,0.0039
CC[C@@H]1NC(=O)[C@H](Cc2ccccc2)NC(=O)CSC[C@@H](C(=O)NCC(N)=O)NC(=O)[C@H](Cc2cncn2C)NC(=O)[C@H](CCCNC(=N)N)NC(=O)[C@H](Cc2c[nH]cn2)NC(=O)[C@H](Cc2ccc(O)cc2)N(C)C(=O)[C@H](CCCNC(=N)N)NC(=O)[C@H](CO)NC(=O)[C@@H](CO)NC(=O)[C@H](Cc2c[nH]cn2)NC(=O)[C@H](Cc2cccc3ccccc23)NC1=O [Compound 27] ({CH2CO}-F[Abu][1Nal]H[dS]SR[NMeY]HR[His(π-Me)]CG-NH2; thioether N-12),3.1,0.39,13,13,0.002
CC[C@@H]1NC(=O)[C@H](Cc2ccccc2)NC(=O)CSC[C@@H](C(=O)NCC(N)=O)NC(=O)[C@H](Cc2cncn2C)NC(=O)[C@H](CCCNC(=N)N)NC(=O)[C@H](Cc2cnc[nH]2)NC(=O)[C@H](Cc2ccc(O)cc2)N(C)C(=O)[C@H](CCCNC(=N)N)NC(=O)[C@H](CO)NC(=O)CNC(=O)[C@H](C)NC(=O)[C@H](Cc2cccc3ccccc23)NC1=O (stereo in doubt) [Compound 35],100,100,100,100,3.1
CC[C@H](C)[C@@H]1NC(=O)[C@H](Cc2ccccc2)NC(=O)CSC[C@@H](C(=O)NCC(N)=O)NC(=O)[C@H](Cc2cncn2C)NC(=O)[C@H](CCCNC(=N)N)NC(=O)[C@H](Cc2cnc[nH]2)NC(=O)[C@H](Cc2ccccc2)N(C)C(=O)[C@H](CCCNC(=N)N)NC(=O)[C@H](CO)NC(=O)CNC(=O)[C@H](Cc2cnc[nH]2)NC(=O)[C@H](Cc2c[nH]c3ccccc23)NC1=O (racemic) [Compound 15],50,3.1,75,100,0.016
"CC(C)[C@@H]1NC(=O)[C@H](Cc2ccccc2)NC(=O)CSC[C@@H](C(=O)NCC(N)=O)NC(=O)[C@H](Cc2cnc[nH]2)NC(=O)[C@H](CCCNC(=N)N)NC(=O)[C@H](Cc2cnc[nH]2)NC(=O)[C@H](Cc2ccccc2)N(C)C(=O)[C@H](CCCNC(=N)N)NC(=O)[C@H](CO)NC(=O)CNC(=O)[C@H](Cc2cnc[nH]2)NC(=O)[C@H](Cc2c[nH]c3ccccc23)NC1=O (racemic) [Compound 1, rac-(3R,6S,9S,12S,15S,18S,21S,27S,30S, 33S,36S)-N-(2-amino-2-oxo-ethyl)-15,36-dibenzyl-9,18-bis(3-guanidinopropyl)-21-(hydroxymethyl)-6,12,27-tris(1H-imidazol-5-ylmethyl)-30-(1H-indol-3-ylmethyl)-33-isopropyl-16-methyl-5,8,11,14,17,20,23,26,29,32,35,38-dodecaoxo-1-thia-4,7,10,13,16,19,22,25,28,31,34,37-dodecazacyclononatriacontane-3-carboxamide]",50,6.3,50,100,0.031
CC[C@H](C)[C@@H]1NC(=O)[C@H]([C@@H](C)O)NC(=O)CNC(=O)[C@H](Cc2ccccc2)NC(=O)CSC[C@@H](C(=O)NCC(N)=O)NC(=O)[C@H](Cc2ccccc2)NC(=O)[C@H](Cc2c[nH]c3ccccc23)NC(=O)[C@H](Cc2ccc(O)cc2)NC(=O)[C@H](CCCNC(=N)N)NC(=O)[C@H](Cc2ccccc2)NC(=O)[C@H](CCCNC(=N)N)NC(=O)[C@H](CCCNC(=N)N)NC(=O)[C@H](CCCCN)NC(=O)[C@H](Cc2cnc[nH]2)NC1=O (racemic) [Compound 50],2,>64,32,2,1
"CC[C@@H]1NC(=O)[C@H](Cc2ccccc2)NC(=O)CSC[C@@H](C(=O)NCC(N)=O)NC(=O)[C@H](C)NC(=O)[C@H](CCCNC(=N)N)NC(=O)[C@H](Cc2c[nH]cn2)NC(=O)[C@H](Cc2ccc(O)cc2)N(C)C(=O)[C@H](CCCNC(=N)N)NC(=O)[C@H](CO)NC(=O)CNC(=O)[C@H](Cc2c[nH]cn2)NC(=O)[C@H](Cc2cccc3ccccc23)NC1=O [Compound 39, (3R,6S,9S,12S,15S,18S,21S,27S,30S, 33S,36S)-N-(2-amino-2-oxo-ethyl)-36-benzyl-33-ethyl-9,18-bis(3-guanidinopropyl)-21-(hydroxymethyl)-15-[(4-hydroxyphenyl)methyl]-12,27-bis(1H-imidazol-4-ylmethyl)-6,16-dimethyl-30-(1-naphthylmethyl)-5,8,11,14,17,20,23,26,29,32,35,38-dodecaoxo-1-thia-4,7,10,13,16,19,22,25,28,31,34,37-dodecazacyclononatriacontane-3-carboxamide] ({CH2CO}-F[Abu][1Nal]HGSR[NMeY]HRACG-NH2; thioether N-12)",100,100,100,100,6.3
CCCC[C@@H]1NC(=O)CSC[C@@H](C(=O)NCC(N)=O)NC(=O)[C@H](Cc2cncn2C)NC(=O)[C@H](CCCNC(=N)N)NC(=O)[C@H](Cc2c[nH]cn2)NC(=O)[C@H](Cc2ccc(O)cc2)N(C)C(=O)[C@H](CCCNC(=N)N)NC(=O)[C@H](CO)NC(=O)CNC(=O)[C@H](Cc2c[nH]cn2)NC(=O)[C@H](Cc2cccc3ccccc23)NC(=O)[C@H](CC)NC1=O [Compound 20] ({CH2CO}-[Nle][Abu][1Nal]HGSR[NMeY]HR[His(π-Me)]CG-NH2; thioether N-12),13,1.6,25,25,0.0078
